In the experiment the test system is HepG2 cells. In words: Test Example 2: inhibition of apolipoprotein B secretion from HepG2 cells, ELISA (also used for metabolites in Test Example 8). It is filed as cell-based. Conditions: Homo sapiens, 24 hours, apo B in supernatant by ELISA, read-out: Test Example 2 Inhibition of apo B secretion IC50. The procedure: Inhibition of Apolipoprotein B Secretion from HepG2 Cells
HepG2 cells were suspended in Dulbecco's Modified Eagle's Medium (DMEM) (containing 10% fetal bovine serum, 100 units/mL penicillin and 100 μg/mL streptomycin), and placed on a 96-well plate (4×10^4 cells/well), then incubated for 24 hours. After removal of the medium, DMEM was replaced by a medium containing a sample dissolved in DMSO or a medium containing DMSO (concentration of DMSO: 0.5%) and incubation was further performed for 24 hours, after which the supernatant was recovered, and concentration of apo B in the supernatant was assayed by Enzyme-Linked Immunosorbent Assay (ELISA)
ELISA was carried out as follows. Anti-human apo B monoclonal antibody (0.5 μg/well) diluted with a solution of sodium carbonate in sodium bicarbonate buffer (50 mL, pH 9.6) was placed in a 96-well plate for ELISA, and allowed to stand at room temperature for 15 hours. After washing the plate, a blocking solution (250 μL/well) was placed in the well, and allowed to stand at room temperature for 1.5 hours. After washing the plate, a standard and a sample (100 μL/well) were placed in the well and allowed to stand at room temperature for one hour. The standard was prepared by adjusting the concentration of the purified human apo B with the DMEM to 0 to 1000 ng/mL. After washing the plate, an anti-human apo B polyclonal antibody labeled with a horse radish peroxidase which was diluted in 1:1000 with DEME (100 μL/well), and allowed to stand at room temperature for one hour. After washing the plate, 2,2-azinobis(3-ethylbenzothiazoline-6-sulfonic acid) solution (100 μL/well) was placed in the well, and allowed to stand at room temperature for one hour. The reaction was stopped by addition of 2% oxalic acid (100 μL/well), and absorbency at 405 nm was measured. Concentration of apo B in the sample was calculated on the basis of a standard curve of the standard. Inhibition rate (%) was calculated from the assayed values in accordance with the following equation.
Inhibition rate (%)=100×(1 minus (concentration of apo B in sample group/concentration of apo B in DMSO group).
Based on the above equation, 50% inhibition concentration (IC50) was determined.
Inhibitory Activity on MTP and apo B Secretion Inhibition by Metabolites
In a similar manner to Test Examples 1 and 2, the activity of metabolites was assayed.
Turning to `CCC(=O)N(C)[C@H](COC(=O)Cc1ccc(NC(=O)c2ccccc2-c2ccc(C(F)(F)F)cc2)c(C(=O)N(C)C)c1)c1ccccc1` [Example 2-51], the IC50 was 47 nM.
For `CCOC(=O)C(COC(=O)Cc1ccc(NC(=O)c2ccc(OC)cc2-c2ccc(C(F)(F)F)cc2)c(C(=O)N(C)C)c1)(C(=O)OCC)c1ccccc1` [Example 2-53] the value was 4.6 nM; for `CCOC(=O)C(COC(=O)Cc1ccc(NC(=O)c2ccc(Cl)cc2-c2ccc(C(F)(F)F)cc2)c(C(=O)N(C)C)c1)(C(=O)OCC)c1ccccc1` [Example 2-54], 8.5 nM; for `CCOC(=O)C(COC(=O)Cc1ccc(NC(=O)c2cccc(C)c2-c2ccc(C(F)(F)F)cc2)c(C(=O)N(C)C)c1)(C(=O)OCC)c1ccccc1` [Example 2-55], 4.2 nM.
On to `CN(C)C(=O)c1cc(CC(=O)OCC(C(=O)OCC(F)(F)F)(C(=O)OCC(F)(F)F)c2ccccc2)ccc1NC(=O)c1ccccc1-c1ccc(C(F)(F)F)cc1` [Example 2-56], for which the IC50 was determined as 0.93 nM.
Take `CCOC(=O)C(COC(=O)Cc1ccc(NC(=O)c2ccccc2-c2ccc(C(F)(F)F)cc2F)c(C(=O)N(C)C)c1)(C(=O)OCC)c1ccccc1` [Example 2-57]: the IC50 was found to be 0.56 nM.
For the compound `CCOC(=O)C(COC(=O)Cc1cc(C(=O)N(C)C)c(NC(=O)c2ccccc2-c2ccc(C(F)(F)F)cc2)cc1F)(C(=O)OCC)c1ccccc1` [Example 2-58], the IC50 is 1.9 nM.
For `CCOC(=O)C(COC(=O)Cc1cc(Br)c(NC(=O)c2ccccc2-c2ccc(C(F)(F)F)cc2)c(C(=O)N(C)C)c1)(C(=O)OCC)c1ccccn1` [Example 2-59] the value was 0.99 nM.
In the case of `CCOC(=O)C(COC(=O)Cc1cc(Cl)c(NC(=O)c2ccccc2-c2ccc(C(F)(F)F)cc2)c(C(=O)N(C)C)c1)(C(=O)OCC)c1ccccc1` [Example 2-60], the IC50 stood at 1.3 nM.
As to `CCOC(=O)C(COC(=O)Cc1ccc(NC(=O)c2ccccc2-c2ccc(C(F)(F)F)c(F)c2)c(C(=O)N(C)C)c1)(C(=O)OCC)c1ccccc1` [Example 2-61], the IC50 came out at 0.38 nM.
For `CCOC(=O)C(COC(=O)Cc1ccc(NC(=O)c2ccccc2-c2ccc(C(F)(F)F)c(Cl)c2)c(C(=O)N(C)C)c1)(C(=O)OCC)c1ccccc1` [Example 2-62] the value was 0.37 nM; for `CCOC(=O)C(COC(=O)Cc1cc(C(=O)N(C)C)c(NC(=O)c2ccccc2-c2ccc(C(F)(F)F)cc2)c(Cl)c1F)(C(=O)OCC)c1ccccc1` [Example 2-66], 57 nM.
With `CCOC(=O)C(COC(=O)Cc1cc(C(=O)N(C)C)c(NC(=O)c2ccccc2-c2ccc(C(F)(F)F)cc2)c(Br)c1F)(C(=O)OCC)c1ccccc1` [Example 2-67], the 50% inhibitory concentration (IC50) came to 43 nM.
For `CCOC(=O)C(COC(=O)Cc1ccc(NC(=O)c2ccccc2-c2ccc(C(F)(F)F)cc2)c(C(=O)N(C)C)c1)(C(=O)OCC)c1ccccc1C` [Example 2-68], the half-maximal inhibitory concentration (IC50) was 2.25 nM.
For the compound `CCOC(=O)C(COC(=O)Cc1ccc(NC(=O)c2ccccc2-c2ccc(C(F)(F)F)cc2)c(C(=O)N(C)C)c1)(C(=O)OCC)c1cccc(C)c1` [Example 2-69], the IC50 came out at 0.91 nM.
`CCOC(=O)C(COC(=O)Cc1ccc(NC(=O)c2ccccc2-c2ccc(C(F)(F)F)cc2)c(C(=O)N(C)C)c1)(C(=O)OCC)c1ccc(C)cc1` [Example 2-70]: the IC50 is 2.34 nM.
As for `CCOC(=O)C(COC(=O)Cc1ccc(NC(=O)c2ccccc2-c2ccc(C(F)(F)F)cc2)c(C(=O)N(C)C)c1)(C(=O)OCC)c1ccccc1Cl` [Example 2-71], the IC50 worked out at 0.54 nM.
Consider `CCOC(=O)C(COC(=O)Cc1ccc(NC(=O)c2ccccc2-c2ccc(C(F)(F)F)cc2)c(C(=O)N(C)C)c1)(C(=O)OCC)c1cccc(Cl)c1` [Example 2-72], for which the IC50 was found to be 0.95 nM.
In the case of `CCOC(=O)C(COC(=O)Cc1ccc(NC(=O)c2ccccc2-c2ccc(C(F)(F)F)cc2)c(C(=O)N(C)C)c1)(C(=O)OCC)c1ccc(Cl)cc1` [Example 2-73], the IC50 came out at 2.93 nM.
Under `CCOC(=O)CC(COC(=O)Cc1ccc(NC(=O)c2ccccc2-c2ccc(C(F)(F)F)cc2)c(C(=O)N(C)C)c1)(C(=O)OCC)c1ccccc1` (stereo not shown) [Example 2-74] stands 0.84 nM; under `CCOC(=O)C(COC(=O)Cc1ccc(NC(=O)c2ccccc2-c2ccc(C(F)(F)F)cc2)c(C(=O)N(C)C)c1)(C(=O)OCC)c1ccccc1OC` [Example 2-75], 12.5 nM; under `CCOC(=O)C(COC(=O)Cc1ccc(NC(=O)c2ccccc2-c2ccc(C(F)(F)F)cc2)c(C(=O)N(C)C)c1)(C(=O)OCC)c1cccc(OC)c1` [Example 2-76], 0.85 nM.
Consider `CCOC(=O)C(COC(=O)Cc1ccc(NC(=O)c2ccccc2-c2ccc(C(F)(F)F)cc2)c(C(=O)N(C)C)c1)(C(=O)OCC)c1ccc(OC)cc1` [Example 2-77], for which the half-maximal inhibitory concentration (IC50) is 2.74 nM.
On to `CCOC(=O)C(COC(=O)Cc1ccc(NC(=O)c2ccc(C(F)(F)F)cc2-c2ccc(C(F)(F)F)cc2)c(C(=O)N(C)C)c1)(C(=O)OCC)c1ccccc1` [Example 2-78], for which the IC50 was 0.14 nM.
Regarding `CCOC(=O)C(COC(=O)Cc1ccc(NC(=O)c2cccc(Cl)c2-c2ccc(C(F)(F)F)cc2)c(C(=O)N(C)C)c1)(C(=O)OCC)c1ccccc1` [Example 2-79], the IC50 was 1.3 nM.
With `CCOC(=O)C(COC(=O)Cc1ccc(NC(=O)c2cccc(F)c2-c2ccc(C(F)(F)F)cc2)c(C(=O)N(C)C)c1)(C(=O)OCC)c1ccccc1` [Example 2-80], the concentration for half-maximal inhibition (IC50) came out at 0.79 nM.
Under `CCOC(=O)C(CCOC(=O)Cc1ccc(NC(=O)c2ccc(C)cc2-c2ccc(C(F)(F)F)cc2)c(C(=O)N(C)C)c1)(C(=O)OCC)c1ccccc1` [Example 2-81] stands 0.96 nM; under `CCOC(=O)C(COC(=O)Cc1ccc(NC(=O)c2ccc(OCC)cc2-c2ccc(C(F)(F)F)cc2)c(C(=O)N(C)C)c1)(C(=O)OCC)c1ccccc1` [Example 2-82], 4.41 nM.
Turning to `CCOC(=O)C(COC(=O)Cc1ccc(NC(=O)c2ccc(OC(C)C)cc2-c2ccc(C(F)(F)F)cc2)c(C(=O)N(C)C)c1)(C(=O)OCC)c1ccccc1` [Example 2-83], the IC50 is 8.87 nM.
Consider `CCOC(=O)C(CCOC(=O)Cc1ccc(NC(=O)c2ccc(C(F)(F)F)cc2-c2ccc(C(F)(F)F)cc2)c(C(=O)N(C)C)c1)(C(=O)OCC)c1ccccc1` [Example 2-84], for which the IC50 was determined as 2.01 nM.
As for `CCOC(=O)C(COC(=O)Cc1ccc(NC(=O)c2cccc(OC)c2-c2ccc(C(F)(F)F)cc2)c(C(=O)N(C)C)c1)(C(=O)OCC)c1ccccc1` [Example 2-85], the IC50 turned out to be 0.49 nM.
For `CCOC(=O)C(COC(=O)Cc1ccc(NC(=O)c2c(C)cccc2-c2ccc(C(F)(F)F)cc2)c(C(=O)N(C)C)c1)(C(=O)OCC)c1ccccc1` [Example 2-86], the IC50 was 0.42 nM.
As to `CCOC(=O)C(COC(=O)Cc1ccc(NC(=O)c2ccccc2-c2ccc(C)cc2)c(C(=O)N(C)C)c1)(C(=O)OCC)c1ccccc1` [Example 2-88], the IC50 is 1.92 nM.
In the case of `CCOC(=O)C(COC(=O)Cc1ccc(NC(=O)c2ccccc2-c2ccc(CC)cc2)c(C(=O)N(C)C)c1)(C(=O)OCC)c1ccccc1` [Example 2-90], the IC50 came out at 1.74 nM.
Turning to `C=C(C)c1ccc(-c2ccccc2C(=O)Nc2ccc(CC(=O)OCC(C(=O)OCC)(C(=O)OCC)c3ccccc3)cc2C(=O)N(C)C)cc1` [Example 2-91], the 50% inhibitory concentration (IC50) worked out at 0.54 nM.
Consider `CCOC(=O)C(COC(=O)Cc1ccc(NC(=O)c2ccccc2-c2ccc(C(C)C)cc2)c(C(=O)N(C)C)c1)(C(=O)OCC)c1ccccc1` [Example 2-92], for which the IC50 was found to be 1.47 nM.
`C=C(C)c1cc(C(F)(F)F)ccc1C(=O)Nc1ccc(CC(=O)OCC(C(=O)OCC)(C(=O)OCC)c2ccccc2)cc1C(=O)N(C)C` [Example 2-93]: the IC50 turned out to be 45.8 nM.
For `CCOC(=O)C(COC(=O)Cc1ccc(NC(=O)c2ccccc2Nc2cccc(C(F)(F)F)c2)c(C(=O)N(C)C)c1)(C(=O)OCC)c1ccccc1` [Example 2-95] the value was 18 nM; for `CCOC(=O)C(COC(=O)Cc1ccc(OC(=O)c2ccccc2-c2ccc(C(F)(F)F)cc2)c(C(=O)N(C)C)c1)(C(=O)OCC)c1ccccc1` [Example 2-96], 81 nM; for `CCOC(=O)C(COC(=O)Cc1ccc(NC(=O)c2ccccc2Oc2cccc(C(F)(F)F)c2)c(C(=O)N(C)C)c1)(C(=O)OCC)c1ccccc1` [Example 2-97], 22 nM.
For `CCC(CC)(COC(=O)Cc1ccc(NC(=O)c2ccccc2-c2ccc(C(F)(F)F)cc2)c(C(=O)N(C)C)c1)c1ccccc1` [Example 2-98] the value was 0.97 nM.
For `CCOC(=O)C(COC(=O)Cc1ccc(NC(=O)c2ccccc2Oc2ccc(C(F)(F)F)cc2)c(C(=O)N(C)C)c1)(C(=O)OCC)c1ccccc1` [Example 2-99] the value was 19 nM.
As for `CN(C)C(=O)c1cc(CC(=O)OCC2(c3ccccc3)CCCC2)ccc1NC(=O)c1ccccc1-c1ccc(C(F)(F)F)cc1` [Example 2-102], the IC50 was 14.6 nM.

The values above are taken from US7625948B2, “Ester compound and medicinal use thereof” (Japan Tobacco Inc., priority 2002, dated 2009).
